Test results from patent publication US20200405716A1, “HISTONE DEACETYLASE 6 (HDAC6) BIOMARKERS IN MULTIPLE MYELOMA” (Acetylon Pharmaceuticals, Inc., priority 2013, published 2020).

Assays:
Format in all cases: cell-based, Human
[1] = system: multiple myeloma cell line MM.1S; test: microRNA and mRNA array, treated MM.1S cells; conditions: 37° C., 6 hours
Source text: The Human miRNome Complete RT^2 miRNA PCR Array profiles the expression of the 752 most abundantly expressed and best characterized microRNA (miRNA) sequences in the Human miRNA genome (miRNome), as annotated by the Sanger miRBase Release 14. The Illumina Gene Expression Beadchip content provides genome-wide transcriptional coverage of well-characterized genes, gene candidates, and splice variants. Each array on the BeadChip targets more than 47,000 probes derived from the National Center for Biotechnology Information Reference Sequence (NCBI) RefSeq Release 38 (Nov. 7, 2009) and other sources. Compound D was incubated with a multiple myeloma cell line (MM.1S or RPMI8226) or a stromal cell line (HS-5) at 37° C. for 6 hours. The concentration of Compound D was 2 uM. Alternatively, Compound A was incubated with the multiple myeloma cell line MM.1S at 37° C. for 6 hours. Total RNA was extracted from the treated cells (e.g., MM.1S cells and RPMI8226 cells) and analyzed using microRNA array. […] The numbers shown are normalized to the expression level of the corresponding biomarker in control cells. For example, the expression level of biomarker hsa-miR-346 was 0.26, which means that the expression level of this biomarker in treated MM.1S cells was 26% of the expression level of this biomarker in MM.1S control cells. Conversely, the expression level of biomarker hsa-miR-145 was 3.09, which means that the expression level of this biomarker in treated MM.1S cells was 3.09 fold of the expression level of this biomarker in MM.1S control cells.

[2] = system: multiple myeloma cell line RPMI8226; test: microRNA and mRNA array, treated RPMI8226 cells; conditions: RPMI-8226 cells, Compound D 2 uM, 37° C., 6 hours
Source text: (§1) The Human miRNome Complete RT^2 miRNA PCR Array profiles the expression of the 752 most abundantly expressed and best characterized microRNA (miRNA) sequences in the Human miRNA genome (miRNome), as annotated by the Sanger miRBase Release 14.
(§2) The Illumina Gene Expression Beadchip content provides genome-wide transcriptional coverage of well-characterized genes, gene candidates, and splice variants. Each array on the BeadChip targets more than 47,000 probes derived from the National Center for Biotechnology Information Reference Sequence (NCBI) RefSeq Release 38 (Nov. 7, 2009) and other sources.
(§3) Compound D was incubated with a multiple myeloma cell line (MM.1S or RPMI8226) or a stromal cell line (HS-5) at 37° C. for 6 hours. The concentration of Compound D was 2 uM.
(§4) Total RNA was extracted from the treated cells (e.g., MM.1S cells and RPMI8226 cells) and analyzed using microRNA array.
(§5) The numbers shown are normalized to the expression level of the corresponding biomarker in control cells. For example, the expression level of biomarker hsa-miR-346 was 0.26, which means that the expression level of this biomarker in treated MM.1S cells was 26% of the expression level of this biomarker in MM.1S control cells. Conversely, the expression level of biomarker hsa-miR-145 was 3.09, which means that the expression level of this biomarker in treated MM.1S cells was 3.09 fold of the expression level of this biomarker in MM.1S control cells.

[3] = system: stromal cell line HS-5; test: microRNA and mRNA array, treated stromal HS-5 cells; conditions: Compound D 2 uM, 37° C., 6 hours
Source text: as §1, §2, §3, §4, §5

[4] = Compound A (concentration not given)

O=C(CCCCCCNC(=O)c1cnc(N(c2ccccc2)c2ccccc2)nc1)NO [Compound A, 2-(diphenylamino)-N-(7-(hydroxyamino)-7-oxoheptyl) pyrimidine-5-carboxamide]
expression of small non-coding RNA SEQ ID NO: 26 normalized to control cells [1, 4]: 0.74 | expression of small non-coding RNA SEQ ID NO: 27 normalized to control cells [1, 4]: 0.74

O=C(NO)c1cnc(NC2(c3ccccc3)CC2)nc1 [Compound D, N-hydroxy-2-((1-phenylcyclopropyl)amino)pyrimidine-5-carboxamide]
expression of miRNA SEQ ID NO: 1 (hsa-miR-346) normalized to control cells ([1]; Compound D 2 uM): 0.26 | expression of miRNA SEQ ID NO: 2 normalized to control cells ([1]; Compound D 2 uM): 0.33 | expression of miRNA SEQ ID NO: 3 normalized to control cells ([1]; Compound D 2 uM): 0.23 | expression of miRNA SEQ ID NO: 4 normalized to control cells ([1]; Compound D 2 uM): 0.27 | expression of miRNA SEQ ID NO: 5 normalized to control cells ([1]; Compound D 2 uM): 0.31 | expression of miRNA SEQ ID NO: 12 (hsa-miR-145) normalized to control cells ([1]; Compound D 2 uM): 3.09 | expression of miRNA SEQ ID NO: 13 normalized to control cells ([1]; Compound D 2 uM): 3.53 | expression of miRNA SEQ ID NO: 14 normalized to control cells ([1]; Compound D 2 uM): 3.19 | expression of miRNA SEQ ID NO: 15 normalized to control cells ([1]; Compound D 2 uM): 3.29 | expression of miRNA SEQ ID NO: 16 normalized to control cells ([1]; Compound D 2 uM): 4.68 | expression of small non-coding RNA SEQ ID NO: 26 normalized to control cells ([1]; Compound D 2 uM): 0.46 | expression of small non-coding RNA SEQ ID NO: 27 normalized to control cells ([1]; Compound D 2 uM): 0.45 | expression of miRNA SEQ ID NO: 2 normalized to control cells [2]: 0.09 | expression of miRNA SEQ ID NO: 6 normalized to control cells [2]: 0.28 | expression of miRNA SEQ ID NO: 7 normalized to control cells [2]: 0.25 | expression of miRNA SEQ ID NO: 8 normalized to control cells [2]: 0.33 | expression of miRNA SEQ ID NO: 9 normalized to control cells [2]: 0.24 | expression of miRNA SEQ ID NO: 17 normalized to control cells [2]: 3.22 | expression of miRNA SEQ ID NO: 18 normalized to control cells [2]: 3.31 | HIF-1a expression level in treated cells as % of the expression level in control cells [3]: 49% | PTPRU expression level in treated cells, fold of the expression level in control cells [3]: 2.52 fold | expression of mRNA SEQ ID NO: 24 (HIF-1a) normalized to control cells [3]: 0.49 | expression of mRNA SEQ ID NO: 25 (PTPRU) normalized to control cells [3]: 2.52 | expression of miRNA SEQ ID NO: 10 normalized to control cells [3]: 0.26 | expression of miRNA SEQ ID NO: 11 normalized to control cells [3]: 0.15 | expression of miRNA SEQ ID NO: 19 normalized to control cells [3]: 6.64 | expression of miRNA SEQ ID NO: 20 normalized to control cells [3]: 21.71 | expression of miRNA SEQ ID NO: 21 normalized to control cells [3]: 54.35 | expression of miRNA SEQ ID NO: 22 normalized to control cells [3]: 5.95 | expression of miRNA SEQ ID NO: 23 normalized to control cells [3]: 3.52
